In the supplement of paper PMC10307832:

Assays:
Assay in all cases: relative viability (nuclei count vs DMSO), 5 days (fraction); higher = more cells survive
NCI-H1666 = test system: NCI-H1666
Procedure, shortened: (§1)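 Medians of duplicate plates are given as relative viability. That measure is the nuclei count in treated wells divided by the count in vehicle wells. Counts were taken on 4× images of lung cancer cell lines in 1536-well plates, 5 days after pin-tool dosing the day after seeding with one drug alone or a fixed anchor-drug dose plus five library-drug doses (not always all listed) in √10 steps.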

RERF-LC-KJ = test system: RERF-LC-KJ
Procedure, shortened: as §1

NCI-H1793 = test system: NCI-H1793
Procedure, shortened: as §1

EKVX = test system: EKVX
Procedure, shortened: as §1

NCI-H23 = test system: NCI-H23
Procedure, shortened: as §1

LCLC-97TM1 = test system: LCLC-97TM1
Procedure, shortened: as §1

BEN = test system: BEN
Procedure, shortened: as §1

NCI-H838 = test system: NCI-H838
Procedure, shortened: as §1

NCI-H2228 = test system: NCI-H2228
Procedure, shortened: as §1

NCI-H1915 = test system: NCI-H1915
Procedure, shortened: as §1

NCI-H1355 = test system: NCI-H1355
Procedure, shortened: as §1

NCI-H2347 = test system: NCI-H2347
Procedure, shortened: as §1

LC-2-ad = test system: LC-2-ad
Procedure, shortened: as §1

NCI-H1650 = test system: NCI-H1650
Procedure, shortened: as §1

PC-3 [JPC-3] = test system: PC-3 [JPC-3]
Procedure, shortened: as §1

LOU-NH91 = test system: LOU-NH91
Procedure, shortened: as §1

NCI-H1993 = test system: NCI-H1993
Procedure, shortened: as §1

NCI-H520 = test system: NCI-H520
Procedure, shortened: as §1

LU99A = test system: LU99A
Procedure, shortened: as §1

SW 1573 = test system: SW 1573
Procedure, shortened: as §1

NCI-H460 = test system: NCI-H460
Procedure, shortened: as §1

NCI-H650 = test system: NCI-H650
Procedure, shortened: as §1

A-427 = test system: A-427
Procedure, shortened: as §1

## O=C(O)CCCCC(CCSCc1ccccc1)SCc1ccccc1 (stereo not given) [CPI-613] + COc1cccc2cc(-c3nc([C@H]4CC[C@H](C(=O)O)CC4)n4ncnc(N)c34)[nH]c12 [OSI-027] (partner 0.5 µM)
NCI-H1666; first compound 5 µM
  relative viability: 0.866
NCI-H1666; first compound 15.81 µM
  relative viability: 0.856
NCI-H1666; first compound 50 µM
  relative viability: 0.798
NCI-H1666; first compound 158.11 µM
  relative viability: 0.281
NCI-H1666; first compound 500 µM
  relative viability: 0.151
RERF-LC-KJ; first compound 5 µM
  relative viability: 0.553
RERF-LC-KJ; first compound 15.81 µM
  relative viability: 0.491
RERF-LC-KJ; first compound 50 µM
  relative viability: 0.513
RERF-LC-KJ; first compound 158.11 µM
  relative viability: 0.114
RERF-LC-KJ; first compound 500 µM
  relative viability: 0.0544
NCI-H1793; first compound 5 µM
  relative viability: 0.277
NCI-H1793; first compound 15.81 µM
  relative viability: 0.241
NCI-H1793; first compound 50 µM
  relative viability: 0.245
NCI-H1793; first compound 158.11 µM
  relative viability: 0.171
NCI-H1793; first compound 500 µM
  relative viability: 0.0629
EKVX; first compound 5 µM
  relative viability: 0.631
EKVX; first compound 15.81 µM
  relative viability: 0.624
EKVX; first compound 50 µM
  relative viability: 0.718
EKVX; first compound 158.11 µM
  relative viability: 0.673
EKVX; first compound 500 µM
  relative viability: 0.693
NCI-H23; first compound 5 µM
  relative viability: 0.651
NCI-H23; first compound 15.81 µM
  relative viability: 0.531
NCI-H23; first compound 50 µM
  relative viability: 0.62
NCI-H23; first compound 158.11 µM
  relative viability: 0.263
NCI-H23; first compound 500 µM
  relative viability: 0.0292
LCLC-97TM1; first compound 5 µM
  relative viability: 0.508
LCLC-97TM1; first compound 15.81 µM
  relative viability: 0.519
LCLC-97TM1; first compound 50 µM
  relative viability: 0.67
LCLC-97TM1; first compound 158.11 µM
  relative viability: 0.474
LCLC-97TM1; first compound 500 µM
  relative viability: 0.0503
BEN; first compound 5 µM
  relative viability: 0.289
BEN; first compound 15.81 µM
  relative viability: 0.298
BEN; first compound 50 µM
  relative viability: 0.304
BEN; first compound 158.11 µM
  relative viability: 0.265
BEN; first compound 500 µM
  relative viability: 0.28
NCI-H838; first compound 5 µM
  relative viability: 0.354
NCI-H838; first compound 15.81 µM
  relative viability: 0.335
NCI-H838; first compound 50 µM
  relative viability: 0.301
NCI-H838; first compound 158.11 µM
  relative viability: 0.235
NCI-H838; first compound 500 µM
  relative viability: 0.0809
NCI-H2228; first compound 5 µM
  relative viability: 0.538
NCI-H2228; first compound 15.81 µM
  relative viability: 0.467
NCI-H2228; first compound 50 µM
  relative viability: 0.525
NCI-H2228; first compound 158.11 µM
  relative viability: 0.192
NCI-H2228; first compound 500 µM
  relative viability: 0.072
NCI-H1915; first compound 5 µM
  relative viability: 0.557
NCI-H1915; first compound 15.81 µM
  relative viability: 0.538
NCI-H1915; first compound 50 µM
  relative viability: 0.485
NCI-H1915; first compound 158.11 µM
  relative viability: 0.447
NCI-H1915; first compound 500 µM
  relative viability: 0.001
NCI-H1355; first compound 5 µM
  relative viability: 0.388
NCI-H1355; first compound 15.81 µM
  relative viability: 0.347
NCI-H1355; first compound 50 µM
  relative viability: 0.345
NCI-H1355; first compound 158.11 µM
  relative viability: 0.29
NCI-H1355; first compound 500 µM
  relative viability: 0.0712
NCI-H2347; first compound 5 µM
  relative viability: 0.325
NCI-H2347; first compound 15.81 µM
  relative viability: 0.407
NCI-H2347; first compound 50 µM
  relative viability: 0.336
NCI-H2347; first compound 158.11 µM
  relative viability: 0.373
NCI-H2347; first compound 500 µM
  relative viability: 0.456
LC-2-ad; first compound 5 µM
  relative viability: 0.893
LC-2-ad; first compound 15.81 µM
  relative viability: 0.744
LC-2-ad; first compound 50 µM
  relative viability: 0.8
LC-2-ad; first compound 158.11 µM
  relative viability: 0.505
LC-2-ad; first compound 500 µM
  relative viability: 0.0505
NCI-H1650; first compound 5 µM
  relative viability: 0.592
NCI-H1650; first compound 15.81 µM
  relative viability: 0.566
NCI-H1650; first compound 50 µM
  relative viability: 0.58
NCI-H1650; first compound 158.11 µM
  relative viability: 0.14
NCI-H1650; first compound 500 µM
  relative viability: 0.0159
PC-3 [JPC-3]; first compound 5 µM
  relative viability: 0.753
PC-3 [JPC-3]; first compound 15.81 µM
  relative viability: 0.658
PC-3 [JPC-3]; first compound 50 µM
  relative viability: 0.729
PC-3 [JPC-3]; first compound 158.11 µM
  relative viability: 0.517
PC-3 [JPC-3]; first compound 500 µM
  relative viability: 0.276
LOU-NH91; first compound 5 µM
  relative viability: 0.703
LOU-NH91; first compound 15.81 µM
  relative viability: 0.65
LOU-NH91; first compound 50 µM
  relative viability: 0.703
LOU-NH91; first compound 158.11 µM
  relative viability: 0.686
LOU-NH91; first compound 500 µM
  relative viability: 0.672
NCI-H1993; first compound 5 µM
  relative viability: 0.531
NCI-H1993; first compound 15.81 µM
  relative viability: 0.572
NCI-H1993; first compound 50 µM
  relative viability: 0.567
NCI-H1993; first compound 158.11 µM
  relative viability: 0.46
NCI-H1993; first compound 500 µM
  relative viability: 0.375
NCI-H520; first compound 5 µM
  relative viability: 0.268
NCI-H520; first compound 15.81 µM
  relative viability: 0.243
NCI-H520; first compound 50 µM
  relative viability: 0.208
NCI-H520; first compound 158.11 µM
  relative viability: 0.179
NCI-H520; first compound 500 µM
  relative viability: 0.141
LU99A; first compound 5 µM
  relative viability: 0.29
LU99A; first compound 15.81 µM
  relative viability: 0.279
LU99A; first compound 50 µM
  relative viability: 0.262
LU99A; first compound 158.11 µM
  relative viability: 0.24
LU99A; first compound 500 µM
  relative viability: 0.0972
SW 1573; first compound 5 µM
  relative viability: 0.592
SW 1573; first compound 15.81 µM
  relative viability: 0.444
SW 1573; first compound 50 µM
  relative viability: 0.498
SW 1573; first compound 158.11 µM
  relative viability: 0.0962
SW 1573; first compound 500 µM
  relative viability: 0.056
NCI-H460; first compound 5 µM
  relative viability: 0.636
NCI-H460; first compound 15.81 µM
  relative viability: 0.422
NCI-H460; first compound 50 µM
  relative viability: 0.535
NCI-H460; first compound 158.11 µM
  relative viability: 0.173
NCI-H460; first compound 500 µM
  relative viability: 0.0125
NCI-H650; first compound 5 µM
  relative viability: 0.445
NCI-H650; first compound 15.81 µM
  relative viability: 0.415
NCI-H650; first compound 50 µM
  relative viability: 0.466
NCI-H650; first compound 158.11 µM
  relative viability: 0.346
NCI-H650; first compound 500 µM
  relative viability: 0.373
A-427; first compound 5 µM
  relative viability: 0.416
A-427; first compound 15.81 µM
  relative viability: 0.423
A-427; first compound 50 µM
  relative viability: 0.387
A-427; first compound 158.11 µM
  relative viability: 0.348
A-427; first compound 500 µM
  relative viability: 0.154
